Data published in patent publication US20250345317A1, “New pharmaceutical compounds, methods and uses thereof” (BBIT-THERAPEUTICS, LDA., priority 2020, published 2025).

Tests used:
[1] = system: OVCAR-3; test: Growth inhibition, SRB assay, OVCAR-3; format: cell-based, human; details: Homo sapiens, OVCAR-3, 48 h
Description: (§1) Table 2 refers to the growth inhibitory effect of COMP, olaparib and cisplatin (CDDP) in a panel of human immortalized breast (T47D, MCF-7, MDA-MB-231, MDA-MB-468, SK-BR-3 and HCC1937), ovarian and endocervical (OCVAR, SKOV-3, […],IGROV-1 and HeLa), pancreatic (PANC-1 and MIAPACA), neuroblastoma (SHSY-5Y), lung (NCI-H460), prostate (VCaP) melanoma (A375 and SK-MEL-5) and glioblastoma (SF-208) cancer cells, immortalized normal MCF10a and HFF1 human cells, and patient-derived ovarian (PD-OVCA #1, #9, #41, #49 and #62) cancer cells. […] Data are mean±SEM (n=5).
(§2) In an embodiment, IC50 values were determined by Sulforhodamine B (SRB) or MTS [3-(4,5-dimethylthiazol-2-yl)-5-(3-carboxymethoxyphenyl)-2-(4-sulfophenyl)-2H-tetrazolium] assay in immortalized and PD-OVCA cells, respectively. Cancer cells were plated in 96-well plates and incubated for 24 hours. Cells were then exposed to serial dilutions of compounds for 48 hours. The solvent DMSO corresponding to the maximum concentration used in these assays (0.025%) was included as control. Results are the mean±S.E.M. of 3-5 independent experiments.

[2] = system: SKOV-3; test: Growth inhibition, SRB assay, SKOV-3; format: cell-based, human; details: Homo sapiens, SK-OV-3, 48 h
Description: as §1, §2

[3] = system: PANC-1; test: Growth inhibition, SRB assay, PANC-1; format: cell-based; details: Homo sapiens, PANC-1, wild-type BRCA1/2, 48 hours
Description: as §1, §2

[4] = system: MiaPACA; test: Growth inhibition, SRB assay, MiaPACA; format: cell-based; details: Homo sapiens, MIA PaCa-2, wild-type BRCA1/2, 48 hours
Description: as §1, §2

[5] = system: NCI-H460; test: Growth inhibition, SRB assay, NCI-H460; format: cell-based; details: Homo sapiens, NCI-H460, wild-type BRCA1/2, 48 hours
Description: as §1, §2

[6] = system: SF-208; test: Growth inhibition, SRB assay, SF-208; format: cell-based; details: Homo sapiens, SF-208, wild-type BRCA1/2, 48 hours
Description: as §1, §2

[7] = system: Vcap; test: Growth inhibition, SRB assay, Vcap; format: cell-based; details: Homo sapiens, wild-type BRCA1/2, 48 hours
Description: as §1, §2

[8] = system: MDA-MB-231; test: Growth inhibition, SRB assay, MDA-MB-231; format: cell-based, human; details: Homo sapiens, MDA-MB-231, 48 h
Description: as §1, §2

[9] = system: IGROV-1 (mutBRCA1 280delA; mutBRCA2 3320del1); test: Growth inhibition, SRB assay, IGROV-1; format: cell-based, human; details: Homo sapiens, IGROV-1, 48 h
Description: as §1, §2

[10] = system: HFF-1; test: Growth inhibition, SRB assay, normal HFF-1 cells; format: cell-based, human; details: Homo sapiens, HFF-1, 48 h
Description: as §1, §2

[11] = system: PD-OVCA#1 (Lack of exon 17 in BRCA1); test: Growth inhibition, MTS assay, PD-OVCA#1; format: cell-based, human; details: Homo sapiens, PD-OVCA#1, pathogenic mutant BRCA1/2, 48 hours
Description: as §1, §2

[12] = system: PD-OVCA#9 (mutBRCA1: c. 4389C > G; mutBRCA2: c6252delT); test: Growth inhibition, MTS assay, PD-OVCA#9; format: cell-based, human; details: Homo sapiens, PD-OVCA#9, pathogenic mutant BRCA1/2, 48 hours
Description: as §1, §2

[13] = system: PD-OVCA#41 (mutBRCA2: c. 3707dupA); test: Growth inhibition, MTS assay, PD-OVCA#41; format: cell-based, human; details: Homo sapiens, PD-OVCA#41, benign mutant BRCA1 with pathogenic mut BRCA2, 48 hours
Description: as §1, §2

[14] = system: PD-OVCA#49; test: Growth inhibition, MTS assay, PD-OVCA#49; format: cell-based, human; details: Homo sapiens, PD-OVCA#49, wild-type BRCA1/2, 48 hours
Description: as §1, §2

[15] = system: breast cancer cells (T47D, MCF-7, MDA-MB-231, MDA-MB-468, SK-BR-3 and HCC1937); test: Growth inhibition, panel of breast cancer cells; format: cell-based; details: Homo sapiens, range over T47D, 48 hours
Procedure: In an embodiment, the activity of COMP compound was tested in an array of human normal and cancer cell lines (Table 2, FIG. 2).
as §1, §2

[16] = system: MCF7 DR-GFP cells; test: Chromosomal DR-GFP homologous recombination assay; format: cell-based, human; details: 2 μM and 6 μM, 48 hours
Procedure: FIG. 9 illustrates the effect of 2 and 6 μM COMP after 48 hours of treatment on homologous recombination activity in MCF7 DR-GFP cells using the chromosomal DR-GFP assay. After 72 hours of double strand breaks induction, MCF7 DR-GFP cells were analysed by flow cytometry to quantify the percentage of GFP-positive cells.
In an embodiment, COMP decreased homologous recombination DNA repair and disrupted the BRCA1-BARD1 interaction.

[17] = system: RAD51; test: RAD51 foci formation by immunofluorescence; format: cell-based, human; details: 12 μM, 48 hours
Procedure: FIG. 10 illustrates the effect of 12 μM COMP on (A) γH2AX expression levels and on (FIG. 10B) γH2AX and RAD51 foci formation, and BRCA1 foci formation and cellular localization after 48 hours of treatment. […] FIG. 10B are representative images generated using Fiji software (scale bar=100 μm; 400 × magnification).

[18] = system: IGROV-1 tumors; test: In vivo antitumor activity in xenograft mice; details: 2 mg/kg intraperitoneal, seven administrations; compared to vehicle or 50 mg/kg of olaparib
Procedure: (§3) FIG. 14 illustrates the in vivo antitumor activity of COMP. C57BL/6-Rag2−/−IL2rg−/− xenograft mice, carrying IGROV-1 cells, were treated with vehicle (control), or 2 mg/kg of COMP or 50 mg/kg of olaparib by intraperitoneal injection three times per week (seven administrations in total). The treatment was initiated when palpable tumors were established (^˜100 mm3). […] In FIGS. 14A-C, data are mean±SEM, n=13 animals.

[19] = Body and organ weight of treated xenograft mice; format: in vivo; details: 2 mg/kg intraperitoneal, seven administrations; compared to vehicle
Procedure: as §3

CC[C@H]1CN(C)C2Cc3c([nH]c4ccccc34)/C(=N/Nc3ccc(Br)cn3)C[C@@H]1[C@@H]2C(=O)OC [COMP, methyl (5R,6S,14S,E)-8-(2-(5-bromopyridin-2-yl) hydrazineylidene)-5-ethyl-3-methyl-2,3,4,5,6,7,8,9-octahydro-1H-2,6-methanoazecino [5,4-b]indole-14-carboxylate]
IC50 ([1]; OVCAR-3, BRCA1 wild-type, 48 hours (second Table 2)): 13.9 µM | IC50 ([1]; OVCAR-3, wild-type BRCA1/2, 48 hours): 13.9 ± 1.7 µM | IC50 ([2]; SKOV-3, wild-type BRCA1/2, 48 hours): 8.9 ± 2.5 µM | IC50 ([2]; Skov-3, BRCA1 wild-type, 48 hours (second Table 2)): 8.9 µM | IC50 [3]: 4.4 ± 0.9 µM | IC50 [4]: 4.5 ± 0.4 µM | IC50 [5]: 15.5 ± 1.5 µM | IC50 [6]: 12.5 ± 0.45 µM | IC50 [7]: 11.7 ± 3.4 µM | IC50 ([8]; MDA-MB-231, BRCA1 loss of heterozigoty, 48 hours): 5 ± 1.4 µM | IC50 ([8]; MDA-MB-231, BRCA1 loss of heterozygosity, 48 hours (second Table 2)): 5 µM | IC50 ([9]; IGROV-1, mutant BRCA1/2, 48 hours): 4.6 ± 1.5 µM | IC50 ([9]; Igrov-1, BRCA1 mutant, 48 hours (second Table 2)): 4.6 µM | IC50 ([10]; HFF1 normal cells, 48 hours (second Table 2)): 33.6 µM | IC50 ([10]; HFF-1 normal cells, 48 hours): 33.6 µM | IC50 [11]: 2.7 ± 0.6 µM | IC50 [12]: 5.1 ± 1 µM | IC50 [13]: 14.1 ± 0.9 µM | IC50 [14]: 15.1 ± 1.4 µM | IC50 [15]: 4.4 to 12 µM | homologous recombination DNA repair capacity (GFP-positive cells) [16]: marked reduction | RAD51-foci formation [17]: pronounced reduction | growth of IGROV-1 tumors [18]: significantly inhibited | body weight [19]: no significant variation | organs weight (spleen, liver, heart and kidneys) [19]: no significant variation
